The values below come from ChEMBL document CHEMBL3124753, “Synthesis of 2-amino-3-cyano-4H-chromen-4-ylphosphonates and their anticancer properties” (2014).

What all share (type): functional
In experiment [1] the test system is KB. As to the kind of experiment: Growth inhibition of human KB cells at 40 uM after 24 hrs by MTT assay relative to control. The note with it: read-out: GI. In general terms: Tetrazolium assays rely on reduction of a dye to a coloured formazan, in cell work by metabolically active cells.
The subject of experiment [2] is KB. The experiment in a line: Growth inhibition of human KB cells at 4 uM after 24 hrs by MTT assay relative to control. The note with it: read-out: GI.
For experiment [3], the system named is KB. As to the kind of experiment: Growth inhibition of human KB cells at 20 uM after 24 hrs by MTT assay relative to control. The settings on record: read-out: GI.
Experiment [4] relates to KB. As to the kind of experiment: Growth inhibition of human KB cells at 2 uM after 24 hrs by MTT assay relative to control. The settings on record: read-out: GI.
Experiment [5] concerns A549. As to the kind of experiment: Growth inhibition of human A549 cells at 40 uM after 24 hrs by MTT assay relative to control. The settings on record: A549, 24 h, read-out: GI.
Experiment [6] concerns A549. As to the kind of experiment: Growth inhibition of human A549 cells at 20 uM after 24 hrs by MTT assay relative to control. The note with it: A549, 24 h, read-out: GI.
Experiment [7] deals with A549. As to the kind of experiment: Growth inhibition of human A549 cells at 4 uM after 24 hrs by MTT assay relative to control. The note with it: A549, 24 h, read-out: GI.
The test system of experiment [8] is A549. The experiment in a line: Growth inhibition of human A549 cells at 2 uM after 24 hrs by MTT assay relative to control. The settings on record: A549, 24 h, read-out: GI.

As to `CCOP(=O)(OCC)C1C(C#N)=C(N)Oc2ccccc21` (stereo unspecified), the inhibition of growth at 40 µM with KB [1] was 60.1%; in the experiment on A549 [5] it was 51%. Also, the inhibition of growth at 4 µM was 15.2% in the experiment with KB [2] and 6.25% in the experiment on A549 [7]. Besides, the inhibition of growth at 20 µM worked out at 19.4% with KB [3] and 18.4% in the experiment on A549 [6]. In addition, the inhibition of growth at 2 µM was determined as 0.12% in the experiment with KB [4] and 4.12% in the experiment with A549 [8].

For the molecule `CC(C)OP(=O)(OC(C)C)C1C(C#N)=C(N)Oc2ccccc21` (stereo unspecified), the figures for the inhibition of growth at 40 µM in the experiment with KB [1] and in the experiment with A549 [5] were 9.22% and 5.47%, respectively. Further, the inhibition of growth at 4 µM in the experiment with KB [2] amounted to 5.21%; in the experiment on A549 [7], 1.2%. Moreover, the inhibition of growth at 20 µM in the experiment on KB [3] turned out to be 8.93%; in the experiment on A549 [6], 3.5%. Besides, the inhibition of growth at 2 µM in the experiment with KB [4] turned out to be 2.5%; in the experiment on A549 [8] it was 0.82%.

Take `CCCCOP(=O)(OCCCC)C1C(C#N)=C(N)Oc2ccccc21` (stereo unspecified): the inhibition of growth at 40 µM in the experiment on KB [1] is 40.4%; in the experiment on A549 [5], 30.2%. For the same molecule, the figures for the inhibition of growth at 4 µM in the experiment on KB [2] and in the experiment with A549 [7] were 6.8% and 7.82%, respectively. For the same molecule, the inhibition of growth at 20 µM came out at 17.6% in the experiment with KB [3] and 21.7% in the experiment with A549 [6]. For the same molecule, the inhibition of growth at 2 µM in the experiment with KB [4] turned out to be 6.45%; with A549 [8], 3.51%.

Take `CCOP(=O)(OCC)C1C(C#N)=C(N)Oc2ccc(Br)cc21` (stereo unspecified): the inhibition of growth at 40 µM in the experiment with KB [1] worked out at 81.8%; in the experiment on A549 [5], 60.8%. Moreover, the inhibition of growth at 4 µM with KB [2] was 10%; with A549 [7], 9.05%. Moreover, the figures for the inhibition of growth at 20 µM in the experiment with KB [3] and in the experiment on A549 [6] were 12% and 20.3%, respectively. Besides, the inhibition of growth at 2 µM in the experiment with KB [4] worked out at 6.8%; with A549 [8] it was 0.52%.

Regarding `CC(C)OP(=O)(OC(C)C)C1C(C#N)=C(N)Oc2ccc(Br)cc21` (stereo unspecified), the inhibition of growth at 40 µM in the experiment on KB [1] was 25.4%; with A549 [5], 12.5%. The values for the inhibition of growth at 4 µM in the experiment with KB [2] and in the experiment with A549 [7] were 15% and 1.6%, respectively. Further, the results for the inhibition of growth at 20 µM in the experiment on KB [3] and in the experiment on A549 [6] were 20.3% and 10.5%, respectively. Also, the figures for the inhibition of growth at 2 µM with KB [4] and in the experiment on A549 [8] were 9.45% and 0.32%, respectively.

On to `CCCCOP(=O)(OCCCC)C1C(C#N)=C(N)Oc2ccc(Br)cc21` (stereo unspecified), for which the figures for the inhibition of growth at 40 µM in the experiment with KB [1] and in the experiment on A549 [5] were 45.2% and 26.7%, respectively. The inhibition of growth at 4 µM in the experiment on KB [2] came to 10.3%; in the experiment with A549 [7], 8.94%. Moreover, the inhibition of growth at 20 µM with KB [3] is 11.5%; in the experiment with A549 [6] it was 17.5%. In addition, the results for the inhibition of growth at 2 µM with KB [4] and in the experiment with A549 [8] were 9.5% and 0.52%, respectively.

Turning to `CCOP(=O)(OCC)C1C(C#N)=C(N)Oc2ccc([N+](=O)[O-])cc21` (stereo unspecified), the results for the inhibition of growth at 40 µM in the experiment on KB [1] and in the experiment on A549 [5] were 8.29% and 3.9%, respectively. In addition, the inhibition of growth at 4 µM stood at 6.08% with KB [2] and 2.89% in the experiment on A549 [7]. For the same molecule, the inhibition of growth at 20 µM was found to be 6.18% with KB [3] and 3.1% in the experiment with A549 [6]. The inhibition of growth at 2 µM is 4.5% in the experiment with KB [4] and 0.33% in the experiment on A549 [8].

Regarding `CC(C)OP(=O)(OC(C)C)C1C(C#N)=C(N)Oc2ccc([N+](=O)[O-])cc21` (stereo unspecified), the inhibition of growth at 40 µM in the experiment on KB [1] was 23.3%; with A549 [5] it was 26.9%. Also, the results for the inhibition of growth at 4 µM in the experiment with KB [2] and with A549 [7] were 8.5% and 6.25%, respectively. In addition, the inhibition of growth at 20 µM was determined as 16.2% with KB [3] and 16.8% with A549 [6]. Further, the inhibition of growth at 2 µM in the experiment on KB [4] stood at 6.07%; in the experiment with A549 [8], 2.5%.

Regarding `CCCCOP(=O)(OCCCC)C1C(C#N)=C(N)Oc2ccc([N+](=O)[O-])cc21` (stereo unspecified), the inhibition of growth at 40 µM in the experiment with KB [1] stood at 33.8%; with A549 [5] it was 15.8%. The inhibition of growth at 4 µM with KB [2] is 6%; in the experiment with A549 [7] it was 8.21%. Further, the inhibition of growth at 20 µM amounted to 14.5% with KB [3] and 7.94% with A549 [6]. Moreover, the inhibition of growth at 2 µM amounted to 0.58% in the experiment on KB [4] and 6.3% with A549 [8].

With `CCOP(=O)(OCC)C1C(C#N)=C(N)Oc2c1cccc2C(C)(C)C` (stereo unspecified), the inhibition of growth at 40 µM in the experiment with KB [1] came to 27.3%; in the experiment on A549 [5], 14.9%. The inhibition of growth at 4 µM amounted to 7.4% with KB [2] and 4.34% in the experiment on A549 [7]. The results for the inhibition of growth at 20 µM with KB [3] and with A549 [6] were 11.5% and 12%, respectively. The inhibition of growth at 2 µM with KB [4] turned out to be 5.65%; with A549 [8], 3.72%.

Take `CC(C)OP(=O)(OC(C)C)C1C(C#N)=C(N)Oc2c1cccc2C(C)(C)C` (stereo unspecified): the inhibition of growth at 40 µM with KB [1] was 20.6%; in the experiment on A549 [5], 14.9%. For the same molecule, the figures for the inhibition of growth at 4 µM in the experiment on KB [2] and in the experiment on A549 [7] were 6.5% and 8.23%, respectively. For the same molecule, the inhibition of growth at 20 µM was 12.5% in the experiment with KB [3] and 13.9% with A549 [6]. Moreover, the inhibition of growth at 2 µM with KB [4] was found to be 5.5%; with A549 [8] it was 3.1%.

Take `CCCCOP(=O)(OCCCC)C1C(C#N)=C(N)Oc2c1cccc2C(C)(C)C` (stereo unspecified): the inhibition of growth at 40 µM with KB [1] was 19.8%; with A549 [5], 13.7%. The results for the inhibition of growth at 4 µM in the experiment on KB [2] and in the experiment on A549 [7] were 13.9% and 10.5%, respectively. Besides, the inhibition of growth at 20 µM with KB [3] is 14.5%; in the experiment on A549 [6], 11.2%. Further, the inhibition of growth at 2 µM with KB [4] turned out to be 11.2%; in the experiment with A549 [8] it was 9.5%.
